Holding throughout (experiment): kinome screen (33PanQinase)
What all share (assay type): biochemical

The target in assay [1] is T1, CDK2/CycE1 (Homo sapiens, UniProt P24941).
T1 construct: purchased Reaction Biology Europe GmbH (formerly ProQinase)
How it is done: (§1) The Kinome Screening was performed by Reaction Biology Europe GmbH (http://reactionbiology.com; Freiburg i. Br., Germany).

Assay [2] deals with T2, MST1 (Homo sapiens, UniProt Q13043).
T2 construct: purchased Reaction Biology Europe GmbH (formerly ProQinase)
T2 sequence (Q13043 1-487): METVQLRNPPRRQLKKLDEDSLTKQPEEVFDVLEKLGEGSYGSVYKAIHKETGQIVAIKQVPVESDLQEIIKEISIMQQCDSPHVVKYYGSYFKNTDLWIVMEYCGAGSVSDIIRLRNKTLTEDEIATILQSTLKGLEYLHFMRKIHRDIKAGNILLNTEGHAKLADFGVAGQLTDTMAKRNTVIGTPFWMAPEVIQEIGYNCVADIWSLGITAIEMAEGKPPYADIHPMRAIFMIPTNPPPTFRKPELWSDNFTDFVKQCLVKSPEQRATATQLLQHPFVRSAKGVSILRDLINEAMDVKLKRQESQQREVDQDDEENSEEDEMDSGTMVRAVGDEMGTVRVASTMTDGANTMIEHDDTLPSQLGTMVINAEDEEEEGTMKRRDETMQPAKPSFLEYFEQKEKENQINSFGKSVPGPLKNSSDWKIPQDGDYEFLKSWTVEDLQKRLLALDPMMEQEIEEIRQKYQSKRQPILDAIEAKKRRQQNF
How it is done: as §1

The target in assay [3] is T3, TAOK3 (Homo sapiens, UniProt Q9H2K8).
T3 construct: purchased Reaction Biology Europe GmbH (formerly ProQinase)
T3 sequence (Q9H2K8 1-898): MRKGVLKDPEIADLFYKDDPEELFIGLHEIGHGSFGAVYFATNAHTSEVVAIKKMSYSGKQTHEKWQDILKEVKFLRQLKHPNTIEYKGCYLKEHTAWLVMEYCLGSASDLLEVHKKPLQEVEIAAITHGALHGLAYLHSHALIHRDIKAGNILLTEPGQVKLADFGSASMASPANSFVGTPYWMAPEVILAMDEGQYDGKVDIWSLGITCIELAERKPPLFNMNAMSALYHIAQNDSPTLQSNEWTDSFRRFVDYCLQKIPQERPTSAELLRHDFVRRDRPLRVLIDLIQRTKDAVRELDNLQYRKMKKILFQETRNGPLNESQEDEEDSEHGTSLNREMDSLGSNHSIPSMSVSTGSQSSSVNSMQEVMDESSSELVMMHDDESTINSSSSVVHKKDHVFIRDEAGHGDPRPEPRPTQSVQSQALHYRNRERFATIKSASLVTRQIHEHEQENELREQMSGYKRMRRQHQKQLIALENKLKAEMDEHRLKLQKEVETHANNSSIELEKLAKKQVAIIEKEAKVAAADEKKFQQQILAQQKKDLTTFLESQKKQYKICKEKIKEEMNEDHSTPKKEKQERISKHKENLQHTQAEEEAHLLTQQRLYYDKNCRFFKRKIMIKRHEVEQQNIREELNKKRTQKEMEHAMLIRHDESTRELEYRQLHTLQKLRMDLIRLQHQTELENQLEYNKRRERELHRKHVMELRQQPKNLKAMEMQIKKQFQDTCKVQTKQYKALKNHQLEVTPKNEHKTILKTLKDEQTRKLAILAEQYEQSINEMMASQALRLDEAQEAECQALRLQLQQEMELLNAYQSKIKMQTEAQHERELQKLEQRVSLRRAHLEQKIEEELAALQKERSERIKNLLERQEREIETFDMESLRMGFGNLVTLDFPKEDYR
How it is done: as §1

Assay [4] has as its target T4, CDK7/CycH/MAT1 (Homo sapiens, UniProt P50613).
T4 construct: purchased Reaction Biology Europe GmbH (formerly ProQinase)
How it is done: as §1

In assay [5] the target is T5, CDK1/CycE1 (Homo sapiens, UniProt P06493).
T5 construct: purchased Reaction Biology Europe GmbH (formerly ProQinase)
How it is done:
as §1

The target in assay [6] is T6, SAK (Homo sapiens, UniProt O00444).
T6 construct: purchased Reaction Biology Europe GmbH (formerly ProQinase)
T6 sequence (O00444 1-970): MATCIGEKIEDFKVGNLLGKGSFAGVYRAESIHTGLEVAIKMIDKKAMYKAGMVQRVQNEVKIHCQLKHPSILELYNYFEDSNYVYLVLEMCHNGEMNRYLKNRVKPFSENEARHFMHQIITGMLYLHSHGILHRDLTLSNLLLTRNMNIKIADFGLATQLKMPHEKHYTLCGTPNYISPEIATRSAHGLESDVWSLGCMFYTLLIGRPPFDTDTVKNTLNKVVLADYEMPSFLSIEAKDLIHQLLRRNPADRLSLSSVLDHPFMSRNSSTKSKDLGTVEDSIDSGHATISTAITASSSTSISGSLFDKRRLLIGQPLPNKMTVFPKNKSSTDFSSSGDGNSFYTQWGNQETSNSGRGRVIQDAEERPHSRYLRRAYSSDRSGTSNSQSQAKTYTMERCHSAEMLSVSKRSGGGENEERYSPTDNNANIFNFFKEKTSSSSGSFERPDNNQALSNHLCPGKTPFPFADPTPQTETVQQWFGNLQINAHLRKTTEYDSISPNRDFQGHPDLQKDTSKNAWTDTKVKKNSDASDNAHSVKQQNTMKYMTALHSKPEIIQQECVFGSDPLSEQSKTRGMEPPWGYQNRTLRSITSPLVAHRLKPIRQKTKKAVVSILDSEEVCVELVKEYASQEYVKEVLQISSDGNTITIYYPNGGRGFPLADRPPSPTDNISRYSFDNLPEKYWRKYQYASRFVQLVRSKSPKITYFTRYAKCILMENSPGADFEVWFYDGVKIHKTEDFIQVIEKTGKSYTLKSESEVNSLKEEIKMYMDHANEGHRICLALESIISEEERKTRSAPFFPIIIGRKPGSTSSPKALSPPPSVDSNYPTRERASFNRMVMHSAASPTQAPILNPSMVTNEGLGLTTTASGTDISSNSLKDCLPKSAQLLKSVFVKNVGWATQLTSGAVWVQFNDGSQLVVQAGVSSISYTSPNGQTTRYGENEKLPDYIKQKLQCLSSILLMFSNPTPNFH
How it is done:
as §1

T4 sequence (P50613 whole entry): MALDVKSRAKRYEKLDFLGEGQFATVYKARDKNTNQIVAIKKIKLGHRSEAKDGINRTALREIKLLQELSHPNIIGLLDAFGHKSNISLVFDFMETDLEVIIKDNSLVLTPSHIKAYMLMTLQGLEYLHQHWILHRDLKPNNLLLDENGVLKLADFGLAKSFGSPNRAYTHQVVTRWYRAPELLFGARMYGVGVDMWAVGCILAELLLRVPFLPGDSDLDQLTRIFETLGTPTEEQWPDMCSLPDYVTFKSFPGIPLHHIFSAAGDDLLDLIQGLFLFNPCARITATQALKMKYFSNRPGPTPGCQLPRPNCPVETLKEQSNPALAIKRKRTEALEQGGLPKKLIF
T4 sequence (P51946 whole entry partner): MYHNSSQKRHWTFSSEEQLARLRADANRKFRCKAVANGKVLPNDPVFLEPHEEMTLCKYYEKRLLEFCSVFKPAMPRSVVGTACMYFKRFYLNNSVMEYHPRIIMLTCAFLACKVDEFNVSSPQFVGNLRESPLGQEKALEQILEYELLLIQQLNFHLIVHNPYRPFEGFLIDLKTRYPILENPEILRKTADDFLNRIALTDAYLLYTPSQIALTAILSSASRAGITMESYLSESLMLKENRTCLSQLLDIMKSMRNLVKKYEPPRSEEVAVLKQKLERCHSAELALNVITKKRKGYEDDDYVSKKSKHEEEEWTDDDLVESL
T4 sequence (P51948 whole entry partner): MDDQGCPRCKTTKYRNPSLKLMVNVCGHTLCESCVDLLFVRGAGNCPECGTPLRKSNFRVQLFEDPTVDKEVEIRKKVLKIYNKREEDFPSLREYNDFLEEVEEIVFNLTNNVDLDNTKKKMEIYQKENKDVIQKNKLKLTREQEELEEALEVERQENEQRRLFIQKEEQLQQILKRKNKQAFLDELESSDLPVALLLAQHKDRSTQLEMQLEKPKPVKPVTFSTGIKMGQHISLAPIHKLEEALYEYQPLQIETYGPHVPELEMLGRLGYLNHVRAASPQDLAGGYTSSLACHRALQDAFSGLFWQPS

With `c1ccc(CNc2cc(-c3c[nH]c4ncccc34)ccn2)cc1` [meriolin 36], the residual kinase activity in assay [1] (0.3 µM) was 1 % of control; in assay [1] (3 µM), 1 % of control; in assay [2] (0.3 µM) it was 4 % of control; in assay [2] (3 µM) it was 1 % of control; in assay [3] (0.3 µM), 44 % of control; in assay [3] (3 µM) it was 6 % of control. The residual kinase activity was 7 % of control in assay [4] (0.3 µM); 2 % of control in assay [4] (3 µM); 2 % of control in assay [5] (0.3 µM); 0 % of control in assay [5] (3 µM); 53 % of control in assay [6] (0.3 µM); 24 % of control in assay [6] (3 µM).
Consider `COc1ccnc2[nH]cc(-c3cc(N)nc(N)c3)c12` [meriolin 16], for which the residual kinase activity is 16 % of control in assay [1] (0.03 µM); 0 % of control in assay [1] (0.3 µM); 88 % of control in assay [2] (0.03 µM); 49 % of control in assay [2] (0.3 µM); 111 % of control in assay [3] (0.03 µM); 91 % of control in assay [3] (0.3 µM). Besides, the residual kinase activity was 44 % of control in assay [4] (0.03 µM); 6 % of control in assay [4] (0.3 µM); 42 % of control in assay [5] (0.03 µM); 8 % of control in assay [5] (0.3 µM); 97 % of control in assay [6] (0.03 µM); 84 % of control in assay [6] (0.3 µM).

The values are drawn from PMC11167047 (Cell Death Discovery, 2024).
